According to patent US9670227B2, “Thienopyrimidine derivatives, a process for their preparation and pharmaceutical compositions containing them” (LES LABORATOIRES SERVIER, priority 2013, dated 2017):

The compounds below were run against Mcl-1 protein (UniProtKB primary accession number: Q07820) (Homo sapiens, UniProt Q07820) (assay: Inhibition of Mcl-1 by fluorescence polarisation, Method 1). Conditions: fluorescence polarisation; Method 1, or Method 2; read-out: IC50 (M) Mcl-1 FP.
Type: binding
Method in brief: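 FP competition, 11-point compound titration in 5% final DMSO; protein and labelled probe at 5 nM and 1 nM final in HEPES/NaCl/Tween 20 buffer, pH 7.4.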

Chain of Mcl-1 protein (Q07820 whole entry): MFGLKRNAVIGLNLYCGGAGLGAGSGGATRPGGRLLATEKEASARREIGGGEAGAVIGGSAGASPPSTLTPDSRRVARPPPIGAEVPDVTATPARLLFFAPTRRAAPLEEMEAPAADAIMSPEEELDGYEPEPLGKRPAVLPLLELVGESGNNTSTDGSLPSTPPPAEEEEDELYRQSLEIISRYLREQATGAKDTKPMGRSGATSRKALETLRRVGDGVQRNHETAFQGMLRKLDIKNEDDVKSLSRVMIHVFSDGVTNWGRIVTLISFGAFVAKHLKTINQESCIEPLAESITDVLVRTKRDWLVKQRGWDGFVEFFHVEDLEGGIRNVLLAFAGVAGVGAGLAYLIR

Row | SMILES | IC50 [M]
1 | CCc1sc2ncnc(OC(Cc3ccccc3)C(=O)O)c2c1-c1cc(Cl)c(O)c(Cl)c1C [Example 428, (2R)-2-{[(5Sa)-5-(3,5-dichloro-4-hydroxy-2-methylphenyl)-6-ethylthieno[2,3-d]pyrimidin-4-yl]oxy}-3-phenylpropanoic acid] | 7.5e-09
2 | CCc1sc2ncnc(OC(Cc3ccccc3)C(=O)O)c2c1-c1cc(Cl)c(O)c(Cl)c1C [Example 429, (2R)-2-{[(5Ra)-5-(3,5-dichloro-4-hydroxy-2-methylphenyl)-6-ethylthieno[2,3-d]pyrimidin-4-yl]oxy}-3-phenylpropanoic acid] | 5.3e-08
3 | CCc1sc2ncnc(OC(Cc3ccccc3)C(=O)O)c2c1-c1cc(CN2CCN(C)CC2)c(O)c(Cl)c1C [Example 430, (2R)-2-[((5Sa)-5-{3-chloro-4-hydroxy-2-methyl-5-[(4-methylpiperazin-1-yl)methyl]phenyl}-6-ethylthieno[2,3-d]pyrimidin-4-yl)oxy]-3-phenylpropanoic acid] | 1.4e-07
4 | CCc1sc2ncnc(OC(Cc3ccccc3)C(=O)O)c2c1-c1cc(N)c(O)c(Cl)c1C [Example 431, (2R)-2-{[(5Sa)-5-(5-amino-3-chloro-4-hydroxy-2-methylphenyl)-6-ethylthieno[2,3-d]pyrimidin-4-yl]oxy}-3-phenylpropanoic acid] | 3.2e-08
5 | CCc1sc2ncnc(OC(Cc3ccccc3)C(=O)O)c2c1-c1cc(Cl)c(O)cc1C [Example 438, (2R)-2-{[(5Sa)-5-(5-chloro-4-hydroxy-2-methylphenyl)-6-ethylthieno[2,3-d]pyrimidin-4-yl]oxy}-3-phenylpropanoic acid] | 8.5e-08
6 | CCc1sc2ncnc(OC(Cc3ccccc3)C(=O)O)c2c1-c1cc(Cl)c(O)cc1C [Example 439, (2R)-2-{[(5Ra)-5-(5-chloro-4-hydroxy-2-methylphenyl)-6-ethylthieno[2,3-d]pyrimidin-4-yl]oxy}-3-phenylpropanoic acid] | 2.5e-07
7 | CCc1sc2ncnc(OC(Cc3ccccc3)C(=O)O)c2c1-c1cc(OCCN2CCN(C)CC2)ccc1C [Example 440, (2R)-2-[(6-ethyl-(5Sa)-5-{2-methyl-5-[2-(4-methylpiperazin-1-yl)ethoxy]phenyl}thieno[2,3-d]pyrimidin-4-yl)oxy]-3-phenylpropanoic acid and (2S)-2-[(6-ethyl-(5Ra)-5-{2-methyl-5-[2-(4-methylpiperazin-1-yl)ethoxy]phenyl}thieno[2,3-d]pyrimidin-4-yl)oxy]-3-phenylpropanoic acid] | 3e-07
8 | CCc1sc2ncnc(OC(Cc3ccccc3)C(=O)O)c2c1-c1cc2c(c(Cl)c1C)OCC(=O)N2 [Example 441, (2R)-2-{[(5Sa)-5-(8-chloro-7-methyl-3-oxo-3,4-dihydro-2H-1,4-benzoxazin-6-yl)-6-ethylthieno[2,3-d]pyrimidin-4-yl]oxy}-3-phenylpropanoic acid] | 2.7e-08

Now from value to compound:

Row | IC50 [M] | SMILES
9 | 1.1e-07 | CCc1sc2ncnc(O[C@H](Cc3ccccc3)C(=O)O)c2c1-c1cc2cc(CN(C)C)oc2c(Cl)c1C [Example 442, (2R)-2-[((5Sa)-5-{7-chloro-2-[(dimethylamino)methyl]-6-methyl-1-benzofuran-5-yl}-6-ethylthieno[2,3-d]pyrimidin-4-yl)oxy]-3-phenylpropanoic acid]
10 | 1.8e-08 | CCc1sc2ncnc(OC(Cc3ccccc3)C(=O)O)c2c1-c1cc2ccoc2c(Cl)c1C [Example 443, (2R)-2-{[(5Sa)-5-(7-chloro-6-methyl-1-benzofuran-5-yl)-6-ethylthieno[2,3-d]pyrimidin-4-yl]oxy}-3-phenylpropanoic acid]
11 | 1.2e-08 | CCc1sc2ncnc(OC(Cc3ccccc3)C(=O)O)c2c1-c1cc2nc(C)oc2c(Cl)c1C [Example 444, (2R)-2-{[(5Sa)-5-(7-chloro-2,6-dimethyl-1,3-benzoxazol-5-yl)-6-ethylthieno[2,3-d]pyrimidin-4-yl]oxy}-3-phenylpropanoic acid]
12 | 6.8e-08 | CCc1sc2ncnc(OC(Cc3ccccc3)C(=O)O)c2c1-c1ccc(O)cc1C [Example 447, (2R)-2-{[6-ethyl-(5Sa)-5-(4-hydroxy-2-methylphenyl)thieno[2,3-d]pyrimidin-4-yl]oxy}-3-phenylpropanoic acid]
13 | 4.4e-07 | CCc1sc2ncnc(OC(Cc3ccccc3)C(=O)O)c2c1-c1ccc(O)cc1C [Example 448, (2R)-2-{[6-ethyl-(5Ra)-5-(4-hydroxy-2-methylphenyl)thieno[2,3-d]pyrimidin-4-yl]oxy}-3-phenylpropanoic acid]
14 | 2.6e-08 | CCc1sc2ncnc(OC(Cc3ccccc3)C(=O)O)c2c1-c1cccc(Cl)c1C [Example 450, (2R)-2-{[(5Sa)-5-(3-chloro-2-methylphenyl)-6-ethylthieno[2,3-d]pyrimidin-4-yl]oxy}-3-phenylpropanoic acid]
15 | 5.8e-07 | CCc1sc2ncnc(OC(Cc3ccccc3)C(=O)O)c2c1-c1cccc(Cl)c1C [Example 451, (2R)-2-{[(5Ra)-5-(3-chloro-2-methylphenyl)-6-ethylthieno[2,3-d]pyrimidin-4-yl]oxy}-3-phenylpropanoic acid]
16 | 3e-07 | CCc1sc2ncnc(OC(Cc3ccccc3)C(=O)O)c2c1-c1cccc(O)c1C [Example 452, (2R)-2-{[6-ethyl-(5Sa)-5-(3-hydroxy-2-methylphenyl)thieno[2,3-d]pyrimidin-4-yl]oxy}-3-phenylpropanoic acid and (2S)-2-{[6-ethyl-(5Ra)-5-(3-hydroxy-2-methylphenyl)thieno[2,3-d]pyrimidin-4-yl]oxy}-3-phenylpropanoic acid]
17 | 1.2e-08 | CCc1sc2ncnc(OC(Cc3ccccc3OCC(F)(F)F)C(=O)O)c2c1-c1ccc(OCCN2CCN(C)CC2)c(Cl)c1C [Example 454, (2R)-2-[((5Sa)-5-{3-chloro-2-methyl-4-[2-(4-methylpiperazin-1-yl)ethoxy]phenyl}-6-ethylthieno[2,3-d]pyrimidin-4-yl)oxy]-3-[2-(2,2,2-trifluoroethoxy)phenyl]propanoic acid]
18 | 3.4e-08 | CCc1sc2ncnc(OC(Cc3ccccc3OCCOC)C(=O)O)c2c1-c1ccc(OCCN2CCN(C)CC2)c(Cl)c1C [Example 457, (2R)-2-[((5Sa)-5-{3-chloro-2-methyl-4-[2-(4-methylpiperazin-1-yl)ethoxy]phenyl}-6-ethylthieno[2,3-d]pyrimidin-4-yl)oxy]-3-[2-(2-methoxyethoxy)phenyl]propanoic acid]
19 | 3.7e-05 | CCc1sc2ncnc(O[C@@H](Cc3cccc4ccoc34)C(=O)O)c2c1-c1ccc(OCCN2CCN(C)CC2)c(Cl)c1C [Example 462, (2S)-3-(1-benzofuran-7-yl)-2-[((5Ra)-5-{3-chloro-2-methyl-4-[2-(4-methylpiperazin-1-yl)ethoxy]phenyl}-6-ethylthieno[2,3-d]pyrimidin-4-yl)oxy]propanoic acid]
20 | 3.9e-07 | CCc1sc2ncnc(OC(Cc3ccccc3F)C(=O)O)c2c1-c1ccc(OCCN2CCN(C)CC2)c(Cl)c1C [Example 464, (2S)-2-[((5Ra)-5-{3-chloro-2-methyl-4-[2-(4-methylpiperazin-1-yl)ethoxy]phenyl}-6-ethylthieno[2,3-d]pyrimidin-4-yl)oxy]-3-(2-fluorophenyl)propanoic acid]
